Source: US20260001871A1, “TRIAZOLE DERIVATIVES AS MODULATORS OF MAS-RELATED G-PROTEIN RECEPTOR D” (ESCIENT PHARMACEUTICALS, INC., priority 2022, published 2026)

Molecular target: human MRGPRD (Homo sapiens, UniProt Q8TDS7)
Assay: MRGPRD antagonist activity, IP-One HTRF assay in CHO cells stably expressing human MRGPRD (versus 100 μM β-Alanine agonist)
Format: cell-based
Experimental: Chinese Hamster Ovary (CHO) cells stably expressing human MRGPRD (Eurofins, San Diego CA) were plated in a 384-well plate at 20,000 cells per well in 12 μL of Optimem (Fisher Scientific 11-058-021). Plates were kept in the incubator at 37° C. overnight. Antagonists were solubilized at a concentration of 10 mM in DMSO, and the agonists were solubilized to stock concentrations of either 50 mM in H2O (β-Alanine) or 10 mM in DMSO (all others) and then diluted in assay buffer (final concentrations of 5.7 mM Tris-HCl, 43 mM NaCl, 50 mM LiCl, pH=8). The concentration of DMSO was normalized across the plate. Antagonists were added to the plate using a Tecan D300 Digital Dispenser at nanoliter/picoliter volumes and 2 μL of agonists in assay buffer were added to each well for a final assay volume of 14 μL. Plates were covered and incubated for 1 h at 37° C. and then for 1 h at room temperature. IP-1 standards and HTRF detection reagents were added according to an IP-One—Gq Kit purchased from Cisbio (part number 621PAPEJ) and incubated in the dark for 1 h at room temperature. Assay plates were read on either a Molecular Devices SpectraMax iD5 plate reader or a BMG ClarioStar plate reader. The HTRF ratio was calculated form the raw data and graphed using GraphPad Prism to calculate IC50 values. Data are expressed as average IC50 values and average percent antagonism calculated as a percent of the maximum efficacy response. For these studies, the variability of the data was assessed by determining the standard error of mean (SEM).
The activity ranges are denoted as follows: “+++++” denotes antagonist activity<100 nM; “++++” denotes antagonist activity between 100 and 500 nM; “+++” denotes activity between 500 and 1000 nM; “++” denotes activity between 1000 and 3000 nM; and “+” denotes activity>3000 nM.

human MRGPRD, sequence (Q8TDS7 whole entry): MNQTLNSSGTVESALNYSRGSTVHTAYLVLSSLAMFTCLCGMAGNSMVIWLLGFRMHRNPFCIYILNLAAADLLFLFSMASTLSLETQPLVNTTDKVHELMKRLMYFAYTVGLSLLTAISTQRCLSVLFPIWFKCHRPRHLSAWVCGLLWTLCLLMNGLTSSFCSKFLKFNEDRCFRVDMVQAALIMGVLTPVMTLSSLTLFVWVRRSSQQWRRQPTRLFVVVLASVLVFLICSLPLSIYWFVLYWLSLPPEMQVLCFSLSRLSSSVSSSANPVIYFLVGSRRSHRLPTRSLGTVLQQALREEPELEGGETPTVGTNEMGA

SMILES | IC50 [nM]
N#Cc1ccc(-c2ccc(-n3nnc(C(=O)Nc4ccncc4)c3C3CC3)cc2)cc1F [Compound 7-22] | 100 to 500
CCn1cc(-c2cccc(-n3nnc(C(=O)Nc4ccncc4)c3C3CC3)c2)cn1 [Compound 7-309] | 1000 to 3000
O=C(Nc1ccncc1)c1nnn(-c2ccc(-c3cc(CO)[nH]n3)cc2)c1C1CC1 [Compound 7-211] | 1000 to 3000
Cc1cc(-c2ccccc2)ccc1-n1nnc(C(=O)Nc2ccncc2)c1C1CC1 [Compound 7-257] | 500 to 1000
CCn1nc(C)c(-c2ccc(-n3nnc(C(=O)Nc4ccncc4)c3C3CC3)cc2)c1C [Compound 7-14] | < 100
O=C(Nc1ccncc1)c1nnn(-c2ccc(-c3ccn(-c4ccccc4)n3)cc2)c1C1CC1 [Compound 7-103] | 100 to 500
Cc1nn(C)c(C)c1-c1cccc(-n2nnc(C(=O)Nc3ccncc3)c2C2CC2)c1 [Compound 7-325] | 1000 to 3000
O=C(Nc1ccncc1)c1nnn(-c2cccc(-c3ccc(-c4ccccc4)cc3)c2)c1C1CC1 [Compound 7-312] | 1000 to 3000
NS(=O)(=O)c1ccccc1-c1ccc(-n2nnc(C(=O)Nc3ccncc3)c2C2CC2)cc1 [Compound 7-197] | 1000 to 3000
O=C(Nc1ccncc1)c1nnn(-c2cccc(-c3ccc[nH]3)c2)c1C1CC1 [Compound 7-296] | 1000 to 3000
Cc1cc(NC(=O)c2nnn(-c3ccc(-c4ccc(C#N)cc4)cc3)c2C2CC2)ccn1 [Compound 7-61] | 100 to 500
CC(=O)c1ccc(-c2ccc(-n3nnc(C(=O)Nc4ccncc4)c3C3CC3)cc2)c(F)c1 [Compound 7-75] | 100 to 500
CCn1cc(-c2ccc(-n3nnc(C(=O)Nc4ccncc4)c3C3CC3)cc2)cn1 [Compound 7-97] | 100 to 500
CCc1ccc(C2(NC(=O)c3nnn(-c4ccc(-c5ccc(C#N)cc5C)cc4)c3C3CC3)CC2)cn1 [Compound 9-17] | 100 to 500
O=C(Nc1ccncc1)c1nnn(C2CCCCC2)c1C1CC1 [Compound 6-1] | 1000 to 3000
O=C(Nc1ccncc1)c1nnn(-c2cccc(-c3ccccc3)c2)c1C1CC1 [Compound 4-11] | 1000 to 3000
CC(=O)c1ccc(-c2ccc(-n3nnc(C(=O)Nc4ccncc4)c3C3CC3)c(C)c2)cc1 [Compound 7-231] | 100 to 500
O=C(Nc1ccncc1)c1nnn(-c2ccc(-c3n[nH]c4ncccc34)cc2)c1C1CC1 [Compound 7-99] | 100 to 500
Cc1nn(C)c(C)c1-c1ccc(-n2nnc(C(=O)Nc3ccncc3)c2C2CC2)cc1F [Compound 7-234] | 100 to 500

SMILES | IC50 [nM]
COc1ccc(C2(NC(=O)c3nnn(-c4ccc(-c5ccc(C#N)c(F)c5)cc4)c3C3CC3)CC2)cn1 [Compound 9-35] | 100 to 500
Cc1cc(-n2nnc(C(=O)Nc3ccncc3)c2C2CC2)ccc1-c1cn(C)nc1C [Compound 7-246] | 500 to 1000
O=C(Nc1ccncc1)c1nnn(-c2ncc(-c3ccccc3)s2)c1C1CC1 [Compound 5-2] | > 3000
COc1cc(C#N)ccc1-c1ccc(-n2nnc(C(=O)NCc3ccc(C)nc3)c2C2CC2)cc1 [Compound 7-48] | 100 to 500
O=C(NC1(c2cccnc2)CC1)c1nnn(-c2cccc(-c3cnn(C4CCC4)c3)c2)c1C1CC1 [Compound 7-10] | > 3000
N#Cc1ccc(-c2ccc(-n3nnc(C(=O)Nc4cc(F)nc(F)c4)c3C3CC3)cc2)cc1F [Compound 9-37] | 500 to 1000
Cc1nn(C(F)F)cc1-c1ccc(-n2nnc(C(=O)Nc3ccncc3)c2C2CC2)cc1 [Compound 7-118] | 500 to 1000
Cc1ccc(-n2nnc(C(=O)Nc3ccnc(C)c3)c2C2CC2)cc1 [Compound 1-4, 5-cyclopropyl-N-(2-methylpyridin-4-yl)-1-(p-tolyl)-1H-1,2,3-triazole-4-carboxamide] | 100 to 500
N#Cc1ccc(-c2ccc(-n3nnc(C(=O)Nc4ccnc(F)c4)c3C3CC3)cc2)cc1F [Compound 9-36] | 100 to 500
N#CCc1ccc(-n2nnc(C(=O)Nc3ccncc3)c2C2CC2)cc1 [Compound 7-4] | > 3000
COc1ccccc1-c1ccc(-n2nnc(C(=O)Nc3ccncc3)c2C2CC2)cc1 [Compound 7-112] | 100 to 500
COc1ccc(-c2cccc(-n3nnc(C(=O)Nc4ccncc4)c3C3CC3)c2)cc1F [Compound 7-303] | 1000 to 3000
Cc1cc(NC(=O)c2nnn(-c3ccc(-c4ccccc4)cc3F)c2C2CC2)ccn1 [Compound 7-21] | 100 to 500
Cc1nn(C)cc1-c1ccc(-n2nnc(C(=O)Nc3ccncc3)c2C2CC2)cc1 [Compound 7-72] | 100 to 500
O=C(Nc1ccncc1)c1nnn(-c2ccc(-c3cnn4c3CCC4)cc2)c1C1CC1 [Compound 7-25] | 100 to 500
O=C(Nc1ccncc1)c1nnn(-c2ccc(-c3cccc(C4CC4)c3)cc2)c1C1CC1 [Compound 7-56] | 100 to 500
Cc1cc(NC(=O)c2nnn(-c3cccc(-c4ccn(C5CCCC5)n4)c3)c2C2CC2)ccn1 [Compound 7-236] | 100 to 500
COc1cc(C)ccc1-n1nnc(C(=O)Nc2ccncc2)c1C1CC1 [Compound 5-5] | 500 to 1000

More lines, now with the values ahead:

IC50 [nM] | SMILES
1000 to 3000 | CC(NC(=O)c1nnn(-c2ccc(-c3ccc(C#N)cc3)cc2)c1C1CC1)c1cnn(C)c1 (stereo not shown) [Compound 15-8]
500 to 1000 | Cc1cc(C#N)ccc1-c1ccc(-n2nnc(C(=O)NC3(c4cncc(Cl)c4)CC3)c2C2CC2)cc1 [Compound 18-16]
100 to 500 | Cc1cc(NC(=O)c2nnn(-c3ccc(-c4ccc(CC#N)nc4)cc3)c2C2CC2)ccn1 [Compound 15-24]
> 3000 | CC(C)(C)n1cc(NC(=O)c2nnn(-c3ccc(-c4ccccc4)cc3)c2C2CC2)cn1 [Compound 14-2]
1000 to 3000 | CCO/C=C/c1cc(-n2nnc(C(=O)Nc3ccncc3)c2C2CC2)ccc1-c1c(C)nn(C)c1C [Compound 25-2]
100 to 500 | Cc1nn(C)c(C)c1-c1ccc(-n2nnc(C(=O)NC3C(C)(C)C3(C)C)c2C(C)C)cc1 [Compound 17-24]
> 3000 | Cc1nn2cccnc2c1-c1ccc(-n2nnc(C(=O)NC3(c4cncc(Cl)c4)CC3)c2C2CC2)cc1 [Compound 10-2]
> 3000 | Cc1nn(C(=O)c2nnn(-c3ccc(-c4ccccc4)cc3)c2C2CC2)c2cccc(N)c12 [Compound 14-4]
100 to 500 | Cc1cc(NC(=O)c2nnn(-c3ccc(-c4ccc(C#N)cc4)cc3F)c2C2CC2)ccn1 [Compound 22-1, 1-(4′-cyano-3-fluoro-[1,1′-biphenyl]-4-yl)-5-cyclopropyl-N-(2-methylpyridin-4-yl)-1H-1,2,3-triazole-4-carboxamide]
< 100 | Cc1cc(NC(=O)c2nnn(-c3ccc(-c4c(C)nn(CC(F)(F)F)c4C)cc3)c2C2CC2)ccn1 [Compound 20-1, 5-cyclopropyl-1-(4-(3,5-dimethyl-1-(2,2,2-trifluoroethyl)-1H-pyrazol-4-yl)phenyl)-N-(2-methylpyridin-4-yl)-1H-1,2,3-triazole-4-carboxamide]
1000 to 3000 | COc1ccc(C2(NC(=O)c3nnn(-c4ccc(-c5ccccc5)cc4)c3C(C)C)CC2)cn1 [Compound 18-28]
1000 to 3000 | Cc1cn2c(NC(=O)c3nnn(-c4ccc(-c5ccccc5)cc4)c3C3CC3)cccc2n1 [Compound 14-66]
1000 to 3000 | CC[C@H](NC(=O)c1nnn(-c2ccc(-c3ccccc3)cc2)c1C1CC1)c1ccccc1 [Compound 14-37]
100 to 500 | Cc1nn(C)c(C)c1-c1ccc(-n2nnc(C(=O)Nc3cccc(C#N)c3)c2C(C)C)cc1 [Compound 17-18]
1000 to 3000 | O=C(NCc1cn[nH]c1)c1nnn(-c2ccc(-c3ccccc3)cc2)c1C1CC1 [Compound 14-36]
